# Results published in patent US9682925B2, “Cyclopropaneamine compound” (TAKEDA PHARMACEUTICAL COMPANY LIMITED, priority 2011, dated 2017).
# pIC50: −log10 of the molar value. Structures can show the parent of a compound that is named as a salt.
# Tests used:
# Format in all cases: biochemical
# human LSD1(171-852) = biological target: T1, human LSD1(171-852) (Homo sapiens, UniProt O60341); assay: Measurement of LSD1 inhibitory activity (time-resolved fluorescence, biotin-histone H3 mono methylated K4 peptide); details: read-out: LSD1 IC50 value
# T1 construct: to give hLSD1(171-852) purified product; made in house; host or cells: Escherichia coli C43(DE3) pLysS
# MAO-B = biological target: T2, MAO-B (Homo sapiens, UniProt P27338); assay: Measurement of MAO-B inhibitory activity (MAO-Glo Assay)
# T2 construct: purchased Sigma-Aldrich Co. LLC
# T2 sequence (P27338 1-520): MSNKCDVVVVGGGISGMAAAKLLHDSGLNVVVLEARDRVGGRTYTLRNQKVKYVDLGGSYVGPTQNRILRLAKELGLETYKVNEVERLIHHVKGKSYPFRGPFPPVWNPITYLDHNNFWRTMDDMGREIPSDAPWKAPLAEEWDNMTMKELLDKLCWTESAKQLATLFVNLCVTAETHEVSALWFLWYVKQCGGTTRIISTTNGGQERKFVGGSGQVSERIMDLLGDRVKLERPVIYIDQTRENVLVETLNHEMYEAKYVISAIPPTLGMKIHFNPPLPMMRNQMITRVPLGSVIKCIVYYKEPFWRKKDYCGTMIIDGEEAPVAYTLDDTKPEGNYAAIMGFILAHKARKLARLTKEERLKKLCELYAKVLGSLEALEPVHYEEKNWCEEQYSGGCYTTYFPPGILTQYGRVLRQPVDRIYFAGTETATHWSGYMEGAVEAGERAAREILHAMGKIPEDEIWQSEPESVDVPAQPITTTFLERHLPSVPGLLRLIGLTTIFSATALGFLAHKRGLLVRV
# Method in brief: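 Percent inhibition was calculated from luciferin-based luminescence, corrected with a blank lacking enzyme and a control lacking compound. The reaction ran 60 min at room temperature after adding MAO substrate (16 µM as added). This followed a 10 min compound–enzyme preincubation in HEPES pH 7.5 buffer.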
# MAO-A = biological target: T3, MAO-A (Homo sapiens, UniProt P21397); assay: Measurement of MAO-A inhibitory activity (MAO-Glo Assay)
# T3 construct: purchased Sigma-Aldrich Co. LLC
# T3 sequence (P21397 1-527): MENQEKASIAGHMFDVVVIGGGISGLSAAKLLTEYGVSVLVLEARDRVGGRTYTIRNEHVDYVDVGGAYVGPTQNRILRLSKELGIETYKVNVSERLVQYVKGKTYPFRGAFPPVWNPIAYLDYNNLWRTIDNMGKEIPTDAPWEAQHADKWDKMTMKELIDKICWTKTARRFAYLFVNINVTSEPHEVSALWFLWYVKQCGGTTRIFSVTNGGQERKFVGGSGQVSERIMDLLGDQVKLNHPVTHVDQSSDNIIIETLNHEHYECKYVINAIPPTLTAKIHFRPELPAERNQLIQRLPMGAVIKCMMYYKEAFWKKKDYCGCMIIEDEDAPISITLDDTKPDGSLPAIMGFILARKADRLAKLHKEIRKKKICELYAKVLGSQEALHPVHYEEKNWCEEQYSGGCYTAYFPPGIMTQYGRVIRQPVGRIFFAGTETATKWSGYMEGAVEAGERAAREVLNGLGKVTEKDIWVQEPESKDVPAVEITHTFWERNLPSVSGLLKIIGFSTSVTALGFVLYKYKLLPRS
# Method in brief: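 MAO-A (400 ng) was pre-incubated with compound 10 min at room temperature in 100 mM HEPES pH 7.5, 5% glycerol, then MAO substrate (160 μM stock) added for 60 min. Luciferin detection reagent, 20 min, luminescence; % inhibition against no-compound control minus no-enzyme blank.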
Structure (SMILES),pIC50 (human LSD1(171-852)),pIC50 (MAO-B),pIC50 (MAO-A)
"O=C(Nc1ccc([C@@H]2C[C@H]2NCCCc2ccccc2)cc1)c1ccccc1 (relative stereo) [Example 14, N-(4-{trans-2-[(3-phenyl-propyl)amino]-cyclopropyl}-phenyl)benzamide]",> 7.00,< 5.00,< 5.00
"CC(C)(C)c1ccc(C(=O)Nc2ccc([C@@H]3C[C@H]3NCC3CC3)cc2)cc1 (relative stereo) [Example 70, 4-tert-butyl-N-(4-{trans-2-[(cyclopropylmethyl)amino]cyclopropyl}phenyl)benzamide hydrochloride]",> 7.00,< 5.00,< 5.00
"Cc1nc(-c2cccc(C(=O)Nc3ccc([C@@H]4C[C@H]4NCC4CC4)cc3)c2)cs1 (relative stereo) [Example 101, N-(4-{trans-2-[(cyclopropylmethyl)-amino]cyclopropyl}-phenyl)-3-(2-methyl-1,3-thiazol-4-yl)benzamide]",> 7.00,< 5.00,< 5.00
"COc1ccc(CN[C@@H]2C[C@H]2c2ccc(NC(=O)c3ccc(-c4ccccc4)cc3)cc2)cc1 (relative stereo) [Example 43, N-(4-{trans-2-[(4-methoxybenzyl)-amino]cyclo-propyl}phenyl)-biphenyl-4-carboxamide]",6.96,5.33,5.48
"O=C(Nc1ccc([C@@H]2C[C@H]2NCC2CC2)cc1)c1nc(-c2ccccc2)cs1 (relative stereo) [Example 125, N-(4-{trans-2-[(cyclopropyl-methyl)amino]cyclo-propyl}phenyl)-4-phenyl-1,3-thiazole-2-carboxamide]",> 7.00,< 5.00,5.60
"O=C(Nc1ccc([C@@H]2C[C@H]2NCC2CC2)cc1)c1ccc(-c2ccncc2)cc1 (relative stereo) [Example 96, N-(4-{trans-2-[(cyclopropylmethyl)-amino]cyclopropyl}-phenyl)-4-(pyridin-4-yl)benzamide]",> 7.00,< 5.00,< 5.00
"O=C(Nc1ccc([C@@H]2C[C@H]2NCC2CC2)cc1)c1ccc(-c2ccccc2)o1 (relative stereo) [Example 123, N-(4-{trans-2-[(cyclopropyl-methyl)amino]cyclo-propyl}phenyl)-5-phenyl-2-furamide]",> 7.00,< 5.00,5.30
"NCCN[C@@H]1C[C@H]1c1ccc(NC(=O)c2ccc(-c3ccccc3)cc2)cc1 (relative stereo) [Example 44, N-(4-{trans-2-[(2-aminoethyl)-amino]cyclo-propyl}phenyl)-biphenyl-4-carboxamide]",> 7.00,5.03,< 5.00
"CS(=O)(=O)c1ccc(C(=O)Nc2ccc([C@@H]3C[C@H]3NCC3CC3)cc2)cc1 (relative stereo) [Example 87, N-(4-{trans-2-[(cyclopropylmethyl)amino]cyclopropyl}-phenyl)-4-(methylsulfonyl)-benzamide]",> 7.00,< 5.00,< 5.00
"O=C(Nc1ccc([C@@H]2C[C@H]2NCC2CC2)cc1)c1ccc(-c2csnn2)cc1 (relative stereo) [Example 119, N-(4-{trans-2-[(cyclopropylmethyl)amino]cyclopropyl}-phenyl)-4-(1,2,3-thiadiazol-4-yl)benzamide]",> 7.00,< 5.00,7.00
"CC(C)(C)n1cc(C(=O)Nc2ccc([C@@H]3C[C@H]3NCC3CC3)cc2)cn1 (relative stereo) [Example 164, 1-tert-butyl-N-(4-{trans-2-[(cyclopropylmethyl)amino]cyclopropyl}phenyl)-1H-pyrazole-4-carboxamide hydrochloride]",6.70,< 5.00,< 5.00
"COc1ccc(CN[C@@H]2C[C@H]2c2ccc(NC(=O)c3cccc(Br)c3)cc2)cc1OC (relative stereo) [Example 6, 3-bromo-N-(4-{trans-2-[(3,4-dimethoxybenzyl)amino]cyclopropyl}phenyl)benzamide]",> 7.00,< 5.00,< 5.00
"O=C(Nc1ccc([C@@H]2C[C@H]2NCc2cccs2)cc1)c1ccccc1 (relative stereo) [Example 13, N-(4-{trans-2-[(thiophen-2-ylmethyl)amino]-cyclopropyl}-phenyl)benzamide]",> 7.00,< 5.00,< 5.00
"O=C(Nc1ccc([C@@H]2C[C@H]2NCC2CC2)cc1)c1ccc(C2CCCCC2)cc1 (relative stereo) [Example 89, 4-cyclohexyl-N-(4-{trans-2-[(cyclopropylmethyl)amino]cyclopropyl}-phenyl)benzamide]",7.00,< 5.00,< 5.00
"COCC(C)N[C@@H]1C[C@H]1c1ccc(NC(=O)c2ccc(-c3ccccc3)cc2)cc1 (relative stereo) [Example 48, N-(4-{trans-2-[(2-methoxy-1-methyl-ethyl)amino]cyclo-propyl}phenyl)-biphenyl-4-carboxamide]",> 7.00,5.42,5.37
"O=C(Nc1ccc([C@@H]2C[C@H]2NCC2CC2)cc1)c1ccc2nc(-c3ccco3)[nH]c2c1 (relative stereo) [Example 98, N-(4-{trans-2-[(cyclopropylmethyl)-amino]cyclopropyl}-phenyl)-2-(2-furyl)-1H-benzimidazole-6-carboxamide]",> 7.00,< 5.00,< 5.00
"O=C(Nc1ccc([C@@H]2C[C@H]2NCC2CC2)cc1)c1ccc(-n2ccnc2)cc1 (relative stereo) [Example 92, N-(4-{trans-2-[(cyclopropylmethyl)-amino]cyclopropyl}-phenyl)-4-(1H-imidazol-1-yl)benzamide]",> 7.00,< 5.00,5.10
"O=C(Nc1ccc([C@@H]2C[C@H]2NCc2ccncc2)cc1)c1ccc(-c2ccccc2)cc1 (relative stereo) [Example 39, N-(4-{trans-2-[(pyridin-4-ylmethyl)amino]-cyclopropyl}-phenyl)biphenyl-4-carboxamide]",> 7.00,< 5.00,< 5.00
"O=C(Nc1ccc([C@@H]2C[C@H]2NCC2CC2)cc1)c1ccc(OCc2ccccc2)cc1 (relative stereo) [Example 71, 4-(benzyloxy)-N-(4-{trans-2-[(cyclopropylmethyl)amino]cyclopropyl}phenyl)benzamide hydrochloride]",> 7.00,< 5.00,< 5.00
"O=C(Nc1ccc([C@@H]2C[C@H]2NCc2ccccc2)cc1)c1cccc(Cc2ccccc2)c1 (relative stereo) [Example 28, 3-benzyl-N-{4-[trans-2-(benzylamino)cyclopropyl]phenyl}benzamide]",> 7.00,< 5.00,5.46
"O=C(Nc1ccc([C@@H]2C[C@H]2NCc2ccccc2)cc1)c1cccc(OCc2ccccc2)c1 (relative stereo) [Example 11, N-{4-[trans-2-(benzylamino)cyclopropyl]phenyl}-3-(benzyloxy)benzamide hydrochloride]",6.82,< 5.00,5.62
"O=C(Nc1ccc([C@@H]2C[C@H]2NCCOCc2ccccc2)cc1)c1ccccc1 (relative stereo) [Example 26, N-[4-(trans-2-{[2-(benzyloxy)-ethyl]amino}-cyclopropyl)-phenyl]benzamide]",> 7.00,< 5.00,5.04
"O=C(Nc1ccc([C@@H]2C[C@H]2NCC2CC2)cc1)c1cnc(-c2ccccc2)o1 (relative stereo) [Example 104, N-(4-{trans-2-[(cyclopropylmethyl)-amino]cyclopropyl}-phenyl)-2-phenyl-1,3-oxazole-5-carboxamide]",> 7.00,< 5.00,< 5.00
